In PubChem BioAssay (NCI) one finds TGI data, which are given here for 13 compounds.

Common to all, as to assay: growth of human tumour cells (NCI), 48 h
In test [1] the test system is OVCAR-8 ovarian.
Test [2] concerns SK-MEL-2 melanoma.
The test system of test [3] is SF-268 CNS.
Test [4] concerns NCI-H23 lung.
Test [5] concerns MDA-MB-231 breast.
Test [6] has as its system SN12C renal.
Test [7] concerns KM12 colon.
The subject of test [8] is UO-31 renal.
Test [9] deals with SK-OV-3 ovarian.
Test [10] concerns NCI-H460 lung.

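These data come from cells grown in 96-well plates and exposed to compound for 48 hours at five concentrations. TGI: total growth inhibition.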

Turning to `COC(=O)c1c(C#C[Si](C)(C)C)c(C#C[Si](C)(C)C)c(C#C[Si](C)(C)C)c(C#C[Si](C)(C)C)c1C(=O)OC`, the TGI in test [1], in test [2], in test [3], in test [4], in test [5] and in test [6] was greater than 100 µM throughout. For the same compound, the TGI in test [7], in [8], in test [9] and in [10] was greater than 100 µM in each case.
On to `C/C(=C\c1ccccc1)C(=O)NCc1ccc(C(=O)NCCc2c[nH]c3ccccc23)cc1`, for which the TGI in test [1], in test [2], in test [3], in test [4], in [5] and in [6] was greater than 100 µM each time. The TGI in [7], in test [8], in test [9] and in test [10] was greater than 100 µM each time.
As for `CC1(C)O[C@@H](CP(c2cccc3ccccc23)c2cccc3ccccc23)[C@H](CP(c2cccc3ccccc23)c2cccc3ccccc23)O1`, the TGI in test [1], in [2], in test [3], in test [4], in test [5] and in test [6] was greater than 100 µM each time. The TGI in test [7], in test [8], in test [9] and in test [10] was greater than 100 µM each time.
Consider `Cc1nnc(CC#N)n1NC(=O)CC#N`, for which the TGI in [1], in test [2], in [3], in test [4], in test [5] and in [6] was greater than 100 µM each time. Also, the TGI in test [7], in [8], in test [9] and in test [10] was greater than 100 µM each time.
For `OC(O)(C(F)(F)F)C(F)(F)F`, the TGI in test [1], in test [2], in [3], in [4], in test [5] and in test [6] was greater than 100 µM throughout. In addition, the TGI in test [7], in [8], in test [9] and in test [10] was greater than 100 µM in each case.
Turning to `CCCCCCCCC[n+]1cccc(C2C(C(=O)OCC)=C(C)NC(C)=C2C(=O)OCC)c1`, the TGI in [1] turned out to be 11.2 µM; in [2], 3.29 µM; in [3], 16.9 µM; in test [4], 17.8 µM; in test [5], 10.9 µM; in [6], 17.5 µM. In addition, the TGI came out at 4.21 µM in test [7], 31.6 µM in [8], 26.5 µM in [9] and 19.3 µM in test [10].
With `COC(=O)/C=C\C(C#N)(C#N)N=Cc1ccsc1`, the TGI in test [1] came out at 13.3 µM; in test [2], 30.7 µM; in test [3] it was 46.2 µM; in test [4] it was 22.1 µM; in [5], 12.2 µM; in test [6], 9.73 µM. The TGI was 28.9 µM in test [7], 8.85 µM in [8], 31.3 µM in [9] and 33.6 µM in [10].
With `O=S(=O)(O)c1ccc(Nc2ccnc3cc(Cl)ccc23)cc1`, the TGI in test [1], in test [2], in [3], in [4], in test [5] and in [6] was greater than 100 µM each time. The TGI in test [7], in [8] and in [9] was greater than 100 µM in each case.
In the case of `COC(=O)[C@@H]1O[C@]12[C@@H](CO[Si](C)(C)C(C)(C)C)O[C@@H](n1cc(C)c(=O)[nH]c1=O)[C@@H]2O[Si](C)(C)C(C)(C)C`, the TGI was 53.4 µM in test [1]; 30.1 µM in test [2]; 38 µM in [3]; 40.5 µM in test [4]; 54.8 µM in [5]; 27.9 µM in test [6]. Besides, the TGI in test [7], in test [9] and in [10] was greater than 100 µM throughout.
For `CSc1ccccc1P(CCP(c1ccccc1SC)c1ccccc1SC)c1ccccc1SC`, the TGI in test [1] was greater than 100 µM; in test [2], greater than 97.2 µM; in test [3], greater than 100 µM; in test [4] it was greater than 38.1 µM; in test [5], greater than 100 µM; in [6], greater than 100 µM. Besides, the TGI in test [7] is greater than 100 µM; in [8], greater than 90.3 µM; in test [9], greater than 55.4 µM; in test [10], greater than 80.1 µM.
Regarding `CC1(C)CC2(C)OC(=N)C1(C#N)C2(C#N)C#N` (configuration not stated), the TGI is 46.8 µM in test [1]; 31.7 µM in [2]; 33.8 µM in test [3]; 21.4 µM in test [4]; 21.2 µM in test [5]; 21.7 µM in [6]. The TGI was 29.4 µM in [7], 16.2 µM in [8] and greater than 100 µM in [9].
As to `C=C1C(=O)O[C@H]2C3C(=C(C)CC[C@@H]12)C(=O)[C@@H]1OC31C` (some centres not stated), the TGI amounted to 5.42 µM in test [1]; 18.3 µM in [2]; 12.6 µM in test [3]; 6.4 µM in test [4]; 8.08 µM in [5]; 3.18 µM in [6]. The TGI in [7] was 20.2 µM; in test [8], 11.1 µM; in test [9] it was 29.4 µM; in test [10] it was 25.3 µM.
For `c1ccc2c(c1)c1c3n2-c2cc(on2)C3CCC1` (configuration not stated), the TGI in test [1], in test [2], in test [3], in test [4], in [5] and in test [6] was greater than 100 µM each time. Further, the TGI in test [7], in test [8], in [9] and in test [10] was greater than 100 µM each time.
